Assay results taken from a compilation of properties of binary mixtures (doi:10.1016/j.fluid.2022.113414).

Test: xn = mol fraction of the nth substance listed
Conditions: 101.3 kPa

CC(=O)[O-].CN1CCCN2CCC[NH+]=C12 + O
viscosity [mPa·s]
Conditions	x1 = 0.103	x1 = 0.206	x1 = 0.301	x1 = 0.405	x1 = 0.494	x1 = 0.604
278.2 K	46	329	945	–	2689	3358
283.2 K	–	–	554	1023.1	–	1825.2
288.2 K	24.1	131.4	340	609	873	1046.1
293.2 K	18.1	87.9	217.7	–	533	629
298.2 K	13.9	61.2	–	244.9	–	396
303.2 K	10.9	43.9	–	164.9	224.5	–
308.2 K	8.77	–	–	114.8	153.9	176.1
313.2 K	7.19	24.72	–	82.4	–	123.6
318.2 K	5.94	19.23	–	60.6	–	89.4
323.2 K	4.99	15.23	30	45.8	59.3	–
328.2 K	4.24	12.3	23.57	35.39	45.37	50.43
333.2 K	3.65	–	18.81	27.89	35.43	39.17
338.2 K	3.15	8.44	15.29	22.37	–	31.03
343.2 K	–	7.12	12.65	18.24	22.81	25.01
348.2 K	2.45	6.08	10.59	15.11	18.74	20.47
353.2 K	2.19	5.25	–	12.66	15.61	16.99
358.2 K	–	–	7.69	10.74	13.17	–
363.2 K	1.78	4	6.66	9.21	11.24	–
368.2 K	–	3.54	5.83	7.98	9.68	–
373.2 K	–	3.17	–	6.97	8.42	–
